From ChEMBL document CHEMBL4825691, “Antimicrobial, modulatory, and antibiofilm activity of tt-farnesol on bacterial and fungal strains of importance to human health” (2021)
In brackets after ≈: the same amount, converted by molar mass.

Tests used:
Type in all cases: functional
Streptococcus mutans [1] = assay: Ratio of MBC to MIC against Streptococcus mutans ATCC 25175
Streptococcus pyogenes [2] = assay: Bactericidal activity against Streptococcus pyogenes ATCC 19615 assessed as bacterial killing incubated for 24 hrs by microdilution assay
Staphylococcus aureus [3] = assay: Antimicrobial activity against Staphylococcus aureus MED 55 assessed assessed as reduction in bacterial growth at 1/4 times of drug MIC in the presence of Oxacillin by microdilution method
Staphylococcus aureus [4] = assay: Bactericidal activity against Staphylococcus aureus ATCC 43300 assessed as bacterial killing incubated for 24 hrs by microdilution assay
Enterococcus durans [5] = assay: Antibiofilm activity against drug-resistant Enterococcus durans BIO01 assessed as inhibition of biofilm formation incubated for 24 hrs by crystal violet staining based microtiter plate method
Streptococcus agalactiae [6] = assay: Antibacterial activity against Streptococcus agalactiae ATCC 13813 assessed as inhibition of bacterial growth incubated for 24 hrs by microdilution assay
Enterococcus durans [7] = assay: Antibacterial activity against Enterococcus durans BIO 0114 assessed as inhibition of bacterial growth incubated for 24 hrs by microdilution assay
Escherichia coli [8] = assay: Antibacterial activity against Escherichia coli EHEC 933 assessed as inhibition of bacterial growth incubated for 24 hrs by microdilution assay
Streptococcus sobrinus [9] = assay: Bactericidal activity against Streptococcus sobrinus ATCC 27351 assessed as bacterial killing incubated for 24 hrs by microdilution assay
Klebsiella pneumoniae [10] = assay: Antibacterial activity against Klebsiella pneumoniae ATCC 1705 assessed as inhibition of bacterial growth incubated for 24 hrs by microdilution assay
Staphylococcus aureus [11] = assay: Bactericidal activity against Staphylococcus aureus MED 55 assessed as bacterial killing incubated for 24 hrs by microdilution assay
Escherichia coli [12] = assay: Antibacterial activity against Escherichia coli EOL 931 assessed as inhibition of bacterial growth incubated for 24 hrs by microdilution assay
Staphylococcus aureus [13] = assay: Ratio of MBC to MIC against Staphylococcus aureus ATCC 43300
Streptococcus sobrinus [14] = assay: Antibacterial activity against Streptococcus sobrinus ATCC 27351 assessed as inhibition of bacterial growth incubated for 24 hrs by microdilution assay
Staphylococcus aureus [15] = assay: Antibacterial activity against Staphylococcus aureus ATCC 29213 assessed as inhibition of bacterial growth incubated for 24 hrs by microdilution assay
Klebsiella pneumoniae [16] = assay: Antibacterial activity against Klebsiella pneumoniae ATCC 700603 assessed as inhibition of bacterial growth incubated for 24 hrs by microdilution assay
Streptococcus pyogenes [17] = assay: Ratio of MBC to MIC against Streptococcus pyogenes ATCC 19615
Staphylococcus aureus [18] = assay: Antimicrobial activity against Staphylococcus aureus MED 55 assessed assessed as reduction in bacterial growth at 1/4 times of drug MIC in the presence of vancomycin by microdilution method
[19] = tested on: Staphylococcus epidermidis; assay: Antibacterial activity against Staphylococcus epidermidis 70 D assessed as inhibition of bacterial growth incubated for 24 hrs by microdilution assay
Streptococcus agalactiae [20] = assay: Ratio of MBC to MIC against Streptococcus agalactiae ATCC 13813
Streptococcus mutans [21] = assay: Antibiofilm activity against drug-resistant Streptococcus mutans ATCC 25175 assessed as inhibition of biofilm formation incubated for 24 hrs by crystal violet staining based microtiter plate method
Acinetobacter baumannii = assay: Antibacterial activity against Acinetobacter baumannii ATCC 19606 assessed as inhibition of bacterial growth incubated for 24 hrs by microdilution assay; conditions: ATCC 19606 = CIP 70.34 = JCM 6841
Streptococcus mutans [22] = assay: Antimicrobial activity against Streptococcus mutans ATCC 25175 assessed assessed as reduction in bacterial growth at 1/8 times of drug MIC in the presence of Ampicillin by microdilution method
[23] = tested on: Staphylococcus epidermidis; assay: Antibiofilm activity against drug-resistant Staphylococcus epidermidis 70 D assessed as inhibition of biofilm formation incubated for 24 hrs by crystal violet staining based microtiter plate method
Staphylococcus aureus [24] = assay: Antimicrobial activity against Staphylococcus aureus MED 55 assessed assessed as reduction in bacterial growth at 1/2 times of drug MIC in the presence of Oxacillin by microdilution method
Staphylococcus aureus [25] = assay: Antibiofilm activity against drug-resistant Staphylococcus aureus ATCC 43300 assessed as inhibition of biofilm formation incubated for 24 hrs by crystal violet staining based microtiter plate method
Streptococcus sobrinus [26] = assay: Antibiofilm activity against drug-resistant Streptococcus sobrinus ATCC 27351 assessed as inhibition of biofilm formation incubated for 24 hrs by crystal violet staining based microtiter plate method
Streptococcus agalactiae [27] = assay: Antibiofilm activity against drug-resistant Streptococcus agalactiae ATCC 13813 assessed as inhibition of biofilm formation incubated for 24 hrs by crystal violet staining based microtiter plate method
[28] = tested on: Staphylococcus epidermidis; assay: Antimicrobial activity against Staphylococcus epidermidis ATCC 12228 assessed assessed as reduction in bacterial growth at 1/4 times of drug MIC in the presence of Oxacillin by microdilution method
Staphylococcus aureus [29] = assay: Antimicrobial activity against Staphylococcus aureus ATCC 29213 assessed assessed as reduction in bacterial growth at 1/8 times of drug MIC in the presence of vancomycin by microdilution method
Staphylococcus aureus [30] = assay: Antibacterial activity against Staphylococcus aureus MED 55 assessed as inhibition of bacterial growth incubated for 24 hrs by microdilution assay
Streptococcus pyogenes [31] = assay: Antibacterial activity against Streptococcus pyogenes ATCC 19615 assessed as inhibition of bacterial growth incubated for 24 hrs by microdilution assay
[32] = tested on: Staphylococcus epidermidis; assay: Ratio of MBC to MIC against Staphylococcus epidermidis ATCC 12228
Staphylococcus aureus [33] = assay: Ratio of MBC to MIC against Staphylococcus aureus MED 55
[34] = tested on: Stenotrophomonas maltophilia; assay: Antibacterial activity against Stenotrophomonas maltophilia EM 0104assessed as inhibition of bacterial growth incubated for 24 hrs by microdilution assay
Enterococcus durans [35] = assay: Ratio of MBC to MIC against Enterococcus durans BIO 0114
Streptococcus mutans [36] = assay: Bactericidal activity against Streptococcus mutans ATCC 25175 assessed as bacterial killing incubated for 24 hrs by microdilution assay
Enterococcus faecalis = assay: Antimicrobial activity against Enterococcus faecalis ATCC 51299 assessed assessed as reduction in bacterial growth at 1/8 times of drug MIC in the presence of Teicoplanin by microdilution method
[37] = tested on: Staphylococcus epidermidis; assay: Bactericidal activity against Staphylococcus epidermidis ATCC 12228 assessed as bacterial killing incubated for 24 hrs by microdilution assay
Staphylococcus aureus [38] = assay: Antimicrobial activity against […] assessed assessed as reduction in bacterial growth at 1/4 times of drug MIC in the presence of Oxacillin by microdilution method
[39] = tested on: Staphylococcus epidermidis; assay: Antimicrobial activity against Staphylococcus epidermidis 70 D assessed assessed as reduction in bacterial growth at 1/4 times of drug MIC in the presence of vancomycin by microdilution method
Streptococcus pyogenes [40] = assay: Antimicrobial activity against Streptococcus pyogenes ATCC 19615 assessed assessed as reduction in bacterial growth at 1/4 times of drug MIC in the presence of Ampicillin by microdilution method
Salmonella typhimurium = assay: Antibacterial activity against Salmonella enterica subsp. enterica serovar Typhimurium ATCC 14028 assessed as inhibition of bacterial growth incubated for 24 hrs by microdilution assay

CC(C)=CCC/C(C)=C/CC/C(C)=C/CO [FARNESOL]
Ratio (Streptococcus mutans [1]): 4 | MBC (Streptococcus pyogenes [2]): 64 µg/mL (≈ 288 µM) | MIC (Staphylococcus aureus [3]): 128 µg/mL | MBC (Staphylococcus aureus [4]): 512 µg/mL (≈ 2300 µM) | MIC (Enterococcus durans [5]): 64 µg/mL (≈ 288 µM) | MIC (Streptococcus agalactiae [6]): 16 µg/mL (≈ 72 µM) | MIC (Enterococcus durans [7]): 64 µg/mL (≈ 288 µM) | MIC (Escherichia coli [8]): > 1020 µg/mL | MBC (Streptococcus sobrinus [9]): 16 µg/mL (≈ 72 µM) | MIC (Klebsiella pneumoniae [10]): > 1020 µg/mL | MBC (Staphylococcus aureus [11]): 128 µg/mL (≈ 576 µM) | MIC (Escherichia coli [12]): > 1020 µg/mL | Ratio (Staphylococcus aureus [13]): >4 | MIC (Streptococcus sobrinus [14]): 8 µg/mL (≈ 36 µM) | MIC (Staphylococcus aureus [15]): > 1020 µg/mL | MIC (Klebsiella pneumoniae [16]): > 1020 µg/mL | Ratio (Streptococcus pyogenes [17]): 4 | MIC (Staphylococcus aureus [18]): 2 µg/mL | MIC [19]: 64 µg/mL (≈ 288 µM) | Ratio (Streptococcus agalactiae [20]): 2 | MIC (Streptococcus mutans [21]): 128 µg/mL (≈ 576 µM) | MIC (Acinetobacter baumannii): > 1020 µg/mL | MIC (Streptococcus mutans [22]): 0.5 µg/mL | MIC [23]: 64 µg/mL (≈ 288 µM) | MIC (Staphylococcus aureus [24]): 128 µg/mL | MIC (Staphylococcus aureus [25]): 32 µg/mL (≈ 144 µM) | MIC (Streptococcus sobrinus [26]): 8 µg/mL (≈ 36 µM) | MIC (Streptococcus agalactiae [27]): 4 µg/mL (≈ 18 µM) | MIC [28]: 0.25 µg/mL | MIC (Staphylococcus aureus [29]): 2 µg/mL | MIC (Staphylococcus aureus [30]): 64 µg/mL (≈ 288 µM) | MIC (Streptococcus pyogenes [31]): 16 µg/mL (≈ 72 µM) | Ratio [32]: >4 | Ratio (Staphylococcus aureus [33]): 2 | MIC [34]: > 1020 µg/mL | Ratio (Enterococcus durans [35]): >4 | MBC (Streptococcus mutans [36]): > 512 µg/mL | MIC (Enterococcus faecalis): 1 µg/mL | MBC [37]: > 128 µg/mL | MIC (Staphylococcus aureus [38]): 8 µg/mL | MIC [39]: 2 µg/mL | MIC (Streptococcus pyogenes [40]): 0.063 µg/mL | MIC (Salmonella typhimurium): > 1020 µg/mL
